Assay results reported in patent US9902696B2, “1,4-substituted piperidine derivatives” (Cephalon, Inc., priority 2015, dated 2018).
Counter-ions that a name gives are not always drawn.

molecular target: T1, recombinant human baculovirus-expressed GST-tagged FASN (Homo sapiens, UniProt P49327); test: FASN enzyme activity assay, fluorescence-based detection of CoA with CPM; format: biochemical; settings: 5 nM FASN, 150 μM NADPH, 10 μM acetyl-CoA, 25 μM malonyl-CoA, 90 minutes incubation; read-out: IC50 data for Compounds of Formulae I-V/V(a): Activity
T1 construct: GST
T1 sequence (P49327 whole entry): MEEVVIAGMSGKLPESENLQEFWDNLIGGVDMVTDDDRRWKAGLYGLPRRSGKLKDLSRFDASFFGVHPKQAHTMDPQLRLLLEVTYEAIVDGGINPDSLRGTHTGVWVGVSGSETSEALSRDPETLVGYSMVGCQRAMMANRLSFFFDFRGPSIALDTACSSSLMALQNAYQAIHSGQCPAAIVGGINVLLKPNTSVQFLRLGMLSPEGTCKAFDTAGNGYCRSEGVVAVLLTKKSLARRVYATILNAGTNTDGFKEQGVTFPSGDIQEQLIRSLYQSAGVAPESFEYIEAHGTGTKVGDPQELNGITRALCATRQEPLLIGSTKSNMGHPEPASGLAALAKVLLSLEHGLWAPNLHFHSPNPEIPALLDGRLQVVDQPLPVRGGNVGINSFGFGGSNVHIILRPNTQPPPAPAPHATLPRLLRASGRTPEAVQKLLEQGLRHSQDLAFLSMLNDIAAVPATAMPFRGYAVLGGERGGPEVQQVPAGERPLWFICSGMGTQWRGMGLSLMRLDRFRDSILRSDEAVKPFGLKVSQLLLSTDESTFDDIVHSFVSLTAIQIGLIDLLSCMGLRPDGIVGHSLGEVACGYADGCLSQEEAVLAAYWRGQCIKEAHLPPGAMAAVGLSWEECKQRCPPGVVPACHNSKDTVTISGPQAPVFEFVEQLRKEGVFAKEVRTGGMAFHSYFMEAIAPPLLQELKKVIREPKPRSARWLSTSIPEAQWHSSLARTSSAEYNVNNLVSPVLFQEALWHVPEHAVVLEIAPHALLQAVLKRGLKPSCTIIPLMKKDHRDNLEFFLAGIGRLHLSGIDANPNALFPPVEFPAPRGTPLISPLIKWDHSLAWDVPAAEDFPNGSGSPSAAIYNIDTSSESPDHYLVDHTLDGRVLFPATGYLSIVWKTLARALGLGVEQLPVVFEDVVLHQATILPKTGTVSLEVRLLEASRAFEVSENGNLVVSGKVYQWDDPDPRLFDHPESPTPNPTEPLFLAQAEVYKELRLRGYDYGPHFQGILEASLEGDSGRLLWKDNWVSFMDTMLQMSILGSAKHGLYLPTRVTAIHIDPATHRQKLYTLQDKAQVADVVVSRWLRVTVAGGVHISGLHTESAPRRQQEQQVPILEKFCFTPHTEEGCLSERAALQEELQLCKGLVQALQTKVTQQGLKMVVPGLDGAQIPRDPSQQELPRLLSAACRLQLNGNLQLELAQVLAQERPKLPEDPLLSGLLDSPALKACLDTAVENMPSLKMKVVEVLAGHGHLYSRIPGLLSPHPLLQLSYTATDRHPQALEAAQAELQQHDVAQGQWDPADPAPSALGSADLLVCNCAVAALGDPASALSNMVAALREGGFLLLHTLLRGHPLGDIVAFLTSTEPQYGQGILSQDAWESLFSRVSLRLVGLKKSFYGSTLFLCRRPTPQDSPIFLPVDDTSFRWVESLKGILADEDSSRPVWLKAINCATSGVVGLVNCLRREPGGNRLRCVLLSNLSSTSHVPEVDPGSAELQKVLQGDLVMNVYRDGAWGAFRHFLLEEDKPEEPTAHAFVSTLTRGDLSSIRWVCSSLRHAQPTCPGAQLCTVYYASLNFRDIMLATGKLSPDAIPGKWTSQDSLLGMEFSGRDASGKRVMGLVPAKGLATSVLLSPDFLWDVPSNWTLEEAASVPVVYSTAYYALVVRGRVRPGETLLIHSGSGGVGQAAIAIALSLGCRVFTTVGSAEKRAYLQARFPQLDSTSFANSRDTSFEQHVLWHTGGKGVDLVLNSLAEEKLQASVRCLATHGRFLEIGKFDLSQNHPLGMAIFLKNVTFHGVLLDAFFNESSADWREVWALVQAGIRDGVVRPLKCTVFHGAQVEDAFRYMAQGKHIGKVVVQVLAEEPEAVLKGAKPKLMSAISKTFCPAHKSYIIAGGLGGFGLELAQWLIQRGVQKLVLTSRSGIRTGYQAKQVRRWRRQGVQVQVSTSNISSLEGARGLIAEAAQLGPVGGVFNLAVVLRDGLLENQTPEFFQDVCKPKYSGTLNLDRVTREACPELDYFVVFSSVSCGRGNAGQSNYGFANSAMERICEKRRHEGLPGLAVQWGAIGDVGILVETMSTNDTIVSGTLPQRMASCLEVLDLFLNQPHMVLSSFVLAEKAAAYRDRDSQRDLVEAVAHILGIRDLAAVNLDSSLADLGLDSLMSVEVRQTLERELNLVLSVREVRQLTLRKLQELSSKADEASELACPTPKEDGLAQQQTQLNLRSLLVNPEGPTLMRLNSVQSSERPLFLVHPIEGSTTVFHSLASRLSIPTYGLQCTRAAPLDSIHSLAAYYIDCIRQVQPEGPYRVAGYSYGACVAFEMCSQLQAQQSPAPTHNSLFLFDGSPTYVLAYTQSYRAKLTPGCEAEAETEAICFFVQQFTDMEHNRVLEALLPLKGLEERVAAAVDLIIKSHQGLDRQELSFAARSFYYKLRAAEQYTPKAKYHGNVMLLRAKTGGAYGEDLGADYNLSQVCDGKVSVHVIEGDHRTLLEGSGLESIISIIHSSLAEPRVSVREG
How it was run: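 CoA product reacted with thiol-reactive CPM (diluted to 50 μM in 70% ethanol), read at 390/530 nm after 30 min. Preceding reaction: 90 min, 5 nM recombinant GST-FASN, 150 μM NADPH, 10 μM acetyl-CoA, 25 μM malonyl-CoA, pH 7.5 HEPES, 0.5% DMSO. IC50s fitted by nonlinear sigmoidal regression.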

Compound | IC50
O=C(C1CCC1)N1CCC(Oc2ccc(-c3cccc(-c4ccccn4)c3F)cc2)CC1 [Example 398, Cyclobutyl-[4-(2′-fluoro-3′-pyridin-2-yl-biphenyl-4-yloxy)-piperidin-1-yl]-methanone HCl] | 1000 to 10000 nM
O=C(C1CC1)N1CCC(Oc2ccc(-c3cncc(Oc4ccccc4)c3)cc2)CC1 [Example 399, Cyclopropyl-{4-[4-(5-phenoxy-pyridin-3-yl)-phenoxy]-piperidin-1-yl}-methanone, HCl] | 1000 to 10000 nM
O=C(C1CCC1)N1CCC(Oc2ccc(-c3cncc(Oc4ccccc4)c3)cc2)CC1 [Example 400, Cyclobutyl-{4-[4-(5-phenoxypyridin-3-yl)-phenoxy]-piperidin-1-yl}-methanone, HCl] | 1000 to 10000 nM
CCC(=O)N1CCC(Oc2ccc(-c3cncc(Nc4ccccc4)c3)cc2)CC1 [Example 401, 1-{4-[4-(5-Phenylaminopyridin-3-yl)-phenoxy]-piperidin-1-yl}-propan-1-one, TFA salt] | 1000 to 10000 nM
CCC(=O)N1CCC(Oc2ccc(-c3ccnc(-c4ccccc4)c3)cc2)CC1 [Example 402, 1-{4-[4-(2-Phenylpyridin-4-yl)-phenoxy]-piperidin-1-yl}-propan-1-one, TFA] | 1000 to 10000 nM
O=C(C1CC1)N1CCC(Oc2ccc(-c3ccnc(-c4ccccc4)c3)cc2)CC1 [Example 403, Cyclopropyl-{4-[4-(2-phenylpyridin-4-yl)-phenoxy]-piperidin-1-yl}-methanone, TFA salt] | 1000 to 10000 nM
CCC(=O)N1CCC(Oc2ccc(-c3ccnc(Nc4ccccc4)c3)cc2)CC1 [Example 404, 1-{4-[4-(2-Phenylaminopyridin-4-yl)-phenoxy]-piperidin-1-yl}-propan-1-one] | 1000 to 10000 nM
O=C(C1CC1)N1CCC(Oc2ccc(-c3ccnc(Nc4ccccc4)c3)cc2)CC1 [Example 405, Cyclopropyl-{4-[4-(2-phenylaminopyridin-4-yl)-phenoxy]-piperidin-1-yl}-methanone] | 1000 to 10000 nM
CCC(=O)N1CCC(Oc2ccc(-c3cccc(-c4ccccn4)c3C)cc2)CC1 [Example 406, 1-[4-(2′-Methyl-3′-pyridin-2-yl-biphenyl-4-yloxy)-piperidin-1-yl]-propan-1-one; TFA salt] | 1000 to 10000 nM
Cc1c(-c2ccc(OC3CCN(C(=O)C4CC4)CC3)cc2)cccc1-c1ccccn1 [Example 407, Cyclopropyl-[4-(2′-methyl-3′-pyridin-2-yl-biphenyl-4-yloxy)-piperidin-1-yl]-methanone, TFA salt] | 1000 to 10000 nM
Cc1c(-c2ccc(OC3CCN(C(=O)C4CCC4)CC3)cc2)cccc1-c1ccccn1 [Example 408, Cyclobutyl-[4-(2′-methyl-3′-pyridin-2-yl-biphenyl-4-yloxy)-piperidin-1-yl]-methanone, TFA salt] | 1000 to 10000 nM
CCC(=O)N1CCC(Oc2ccc(-c3ccnc(Oc4ccccc4)c3)cc2)CC1 [Example 409, 1-{4-[4-(2-Phenoxypyridin-4-yl)-phenoxy]-piperidin-1-yl}-propan-1-one] | 1000 to 10000 nM
CCC(=O)N1CCC(Oc2ccc(-c3cc(OC)c4ccnn4c3)cc2)CC1 [Example 410, 1-{4-[4-(4-Methoxypyrazolo[1,5-a]pyridin-6-yl)-phenoxy]-piperidin-1-yl}-propan-1-one, HCl] | 100 to 999 nM
COc1cc(-c2ccc(OC3CCN(C(=O)C4CC4)CC3)cc2)cn2nccc12 [Example 411, Cyclopropyl-{4-[4-(4-methoxypyrazolo[1,5-a]pyridin-6-yl)-phenoxy]-piperidin-1-yl}-methanone, HCl] | 100 to 999 nM
COc1cc(-c2ccc(OC3CCN(C(=O)C4CCC4)CC3)cc2)cn2nccc12 [Example 412, Cyclobutyl-{4-[4-(4-methoxypyrazolo[1,5-a]pyridin-6-yl)-phenoxy]-piperidin-1-yl}-methanone, HCl] | 1 to 99 nM
CCC(=O)N1CCC(Oc2ccc(-c3ccc4cnc(Cl)cc4c3)cc2)CC1 [Example 413, 1-{4-[4-(3-Chloroisoquinolin-6-yl)-phenoxy]-piperidin-1-yl}-propan-1-one] | 1000 to 10000 nM
O=C(C1CC1)N1CCC(Oc2ccc(-c3ccc4cnc(Cl)cc4c3)cc2)CC1 [Example 414, {4-[4-(3-Chloroisoquinolin-6-yl)-phenoxy]-piperidin-1-yl}-cyclopropyl-methanone] | 1000 to 10000 nM
CCC(=O)N1CCC(Oc2ccc(-c3ccc4cnc(OC)cc4c3)cc2)CC1 [Example 415, 1-{4-[4-(3-Methoxyisoquinolin-6-yl)-phenoxy]-piperidin-1-yl}-propan-1-one] | 1000 to 10000 nM
COc1cc2cc(-c3ccc(OC4CCN(C(=O)C5CC5)CC4)cc3)ccc2cn1 [Example 416, Cyclopropyl-{4-[4-(3-methoxyisoquinolin-6-yl)-phenoxy]-piperidin-1-yl}-methanone] | 100 to 999 nM
COc1cc2cc(-c3ccc(OC4CCN(C(=O)C5CCC5)CC4)cc3)ccc2cn1 [Example 417, Cyclobutyl-{4-[4-(3-methoxyisoquinolin-6-yl)-phenoxy]-piperidin-1-yl}-methanone] | 100 to 999 nM
COc1cc2cc(-c3ccc(OC4CCN(C(=O)[C@H]5CCCO5)CC4)cc3)ccc2cn1 [Example 418, {4-[4-(3-Methoxy-isoquinolin-6-yl)-phenoxy]-piperidin-1-yl}-(R)-tetrahydrofuran-2-yl-methanone] | 1 to 99 nM
CCC(=O)N1CCC(Oc2ccc(-c3ccc4c(Cl)nccc4c3)cc2)CC1 [Example 419, 1-{4-[4-(1-Chloroisoquinolin-6-yl)-phenoxy]-piperidin-1-yl}-propan-1-one] | 100 to 999 nM
O=C(C1CC1)N1CCC(Oc2ccc(-c3ccc4c(Cl)nccc4c3)cc2)CC1 [Example 420, {4-[4-(1-Chloroisoquinolin-6-yl)-phenoxy]-piperidin-1-yl}-cyclopropyl-methanone] | 100 to 999 nM
CCC(=O)N1CCC(Oc2ccc(-c3ccc4cnc(N(C)C)cc4c3)cc2)CC1 [Example 421, 1-{4-[4-(3-Dimethylaminoisoquinolin-6-yl)-phenoxy]-piperidin-1-yl}-propan-1-one] | 1000 to 10000 nM
CCC(=O)N1CCC(Oc2ccc(-c3ccc4cnc(N)cc4c3)cc2)CC1 [Example 422, 1-{4-[4-(3-Aminoisoquinolin-6-yl)-phenoxy]-piperidin-1-yl}-propan-1-one] | 100 to 999 nM
Nc1cc2cc(-c3ccc(OC4CCN(C(=O)C5CC5)CC4)cc3)ccc2cn1 [Example 423, {4-[4-(3-Aminoisoquinolin-6-yl)-phenoxy]-piperidin-1-yl}-cyclopropyl-methanone] | 100 to 999 nM
COc1cc(-c2ccc(OC3CCN(C(=O)[C@H]4CCCO4)CC3)cc2)cn2nccc12 [Example 424, {4-[4-(4-Methoxypyrazolo[1,5-a]pyridin-6-yl)-phenoxy]-piperidin-1-yl}-(R)-tetrahydrofuran-2-yl-methanone, HCl] | 1 to 99 nM

Next, values leading:

IC50 | Compound
1 to 99 nM | CCC(=O)N1CCC(Oc2ccc(-c3ccc4c(C)nccc4c3)cc2)CC1 [Example 425, 1-{4-[4-(1-Methylisoquinolin-6-yl)-phenoxy]-piperidin-1-yl}-propan-1-one]
1000 to 10000 nM | CCC(=O)N1CCC(Oc2ccc(-c3cc(O)c4ccnn4c3)cc2)CC1 [Example 426, 1-{4-[4-(4-Hydroxypyrazolo[1,5-a]pyridin-6-yl)-phenoxy]-piperidin-1-yl}-propan-1-one]
1000 to 10000 nM | O=C(C1CCC1)N1CCC(Oc2ccc(-c3cc(O)c4ccnn4c3)cc2)CC1 [Example 427, Cyclobutyl-{4-[4-(4-hydroxy-pyrazolo[1,5-a]pyridin-6-yl)-phenoxy]-piperidin-1-yl}-methanone]
100 to 999 nM | O=C(C1CCC1)N1CCC(Oc2ccc(-c3ccc4c(Cl)nccc4c3)cc2)CC1 [Example 428, {4-[4-(1-Chloroisoquinolin-6-yl)-phenoxy]-piperidin-1-yl}-cyclobutyl-methanone]
1 to 99 nM | O=C([C@H]1CCCO1)N1CCC(Oc2ccc(-c3ccc4c(Cl)nccc4c3)cc2)CC1 [Example 429, {4-[4-(1-Chloroisoquinolin-6-yl)-phenoxy]-piperidin-1-yl}-(R)-tetrahydro-furan-2-yl-methanone]
1000 to 10000 nM | CCC(=O)N1CCC(Oc2ccc(-c3ccc4cnc(C)cc4c3)cc2)CC1 [Example 430, 1-{4-[4-(3-Methylisoquinolin-6-yl)-phenoxy]-piperidin-1-yl}-propan-1-one]
1 to 99 nM | Cc1nccc2cc(-c3ccc(OC4CCN(C(=O)[C@H]5CCCO5)CC4)cc3)ccc12 [Example 431, {4-[4-(1-Methylisoquinolin-6-yl)-phenoxy]-piperidin-1-yl}-(R)-tetrahydro-furan-2-yl-methanone]
1 to 99 nM | COc1nccc2cc(-c3ccc(OC4CCN(C(=O)[C@H]5CCCO5)CC4)cc3)ccc12 [Example 432, {4-[4-(1-Methoxyisoquinolin-6-yl)-phenoxy]-piperidin-1-yl}-(R)-tetrahydro-furan-2-yl-methanone]
100 to 999 nM | CCC(=O)N1CCC(Oc2ccc(-c3ccc4c(OC)nccc4c3)cc2)CC1 [Example 433]
100 to 999 nM | COc1nccc2cc(-c3ccc(OC4CCN(C(=O)C5CCC5)CC4)cc3)ccc12 [Example 434, Cyclobutyl-{4-[4-(1-methoxyisoquinolin-6-yl)-phenoxy]-piperidin-1-yl}-methanone]
100 to 999 nM | COc1nccc2cc(-c3ccc(OC4CCN(C(=O)C5CC5)CC4)cc3)ccc12 [Example 435, Cyclopropyl-{4-[4-(1-methoxyisoquinolin-6-yl)-phenoxy]-piperidin-1-yl}-methanone]
1 to 99 nM | Nc1cc2cc(-c3ccc(OC4CCN(C(=O)[C@H]5CCCO5)CC4)cc3)ccc2cn1 [Example 436, {4-[4-(3-Aminoisoquinolin-6-yl)-phenoxy]-piperidin-1-yl}-(R)-tetrahydro-furan-2-yl-methanone]
